The record followed here is patent US20210251972A1, “Methods Of Treating Fabry Disease” (Amicus Therapeutics, Inc., priority 2020, published 2021).

The test deals with ERT-experienced patients with Fabry disease and migalastat-amenable GLA variants. As to the kind of experiment: Composite clinical outcomes (CCOs) in ATTRACT (AT1001-012) and open-label extension studies AT1001-041/AT1001-042, Phase 3. Format: in vivo, human. The conditions noted are these: for Incidence rate of composite clinical outcomes (CCOs): all patients; for Median time to first CCO: overall. The source says:
Patients initiated ERT ≥12 months prior to the study.
AT1001-041 (NCT01458119) was a long-term OLE study evaluating the long-term safety and efficacy of migalastat in patients completing a previous migalastat study.
AT1001-042 (NCT02194985) is an ongoing, long-term OLE study evaluating the long-term safety and efficacy of migalastat in patients who participated in AT1001-012 or AT1001-041.
CCOs were defined prior to the planned analysis and included: • Renal events (a decrease in eGFRCKD-EPI≥15 mL/min/1.73 m^2, with the decreased eGFR<90 mL/min/1.73 m^2 relative to baseline; or an increase in 24-hour urine protein≥33%, with elevated protein≥300 mg relative to baseline) • Cardiac events (myocardial infarction; unstable cardiac angina; new symptomatic arrhythmia requiring antiarrhythmic medication, direct current cardioversion, pacemaker, or defibrillator implantation; congestive heart failure [New York Association Class III or IV]) • Cerebrovascular events (stroke or transient ischemic attack) • Death
Exposure to migalastat was calculated from the day of the first dose to the last available data point or the date of discontinuation; for this analysis, the exposure to ERT comprised the duration of participation in the ATTRACT study, and lasted up to 18 months.
Incidence rates were calculated for renal, cerebrovascular, and cardiac events separately and for the composite clinical outcomes. All individual events were accounted for when calculating incidence. Median times to the first clinical event were calculated based on the same data used for the incidence rates.
A direct comparison between migalastat and ERT was based on the 18 months exposure (the ERT data were from first 18 months in ATTRACT only); in addition, the incidence of CCOs for the whole follow-up period was calculated for migalastat (ATTRACT and subsequent OLE studies)
The long-term incidence for migalastat was calculated based on all available data for migalastat.

On to `Cl.OC[C@H]1NC[C@H](O)[C@@H](O)[C@H]1O` [Migalastat, (2R,3S,4R,5S)-2-(hydroxymethyl) piperdine-3,4,5-triol], for which the “Incidence rate of composite clinical outcomes (CCOs)” value reads like this: (first 18 months of treatment) 0.41 per patient·year; (long-term follow-up, at the data cutoff (median 4.8 years)) 0.45 per patient·year. For the same molecule, the “Median time to first composite clinical outcome” value is 1.15 Years (females, 0-4.8 years) and 1.30 Years (males, 0-4.8 years). For the same molecule, the “Incidence rate, cardiac event” value by setting is: (females, at 4.8 years) 0.02 per patient·year; (females, at 18 months) 0.05 per patient·year; (males, at 4.8 years) 0.04 per patient·year; (males, at 18 months) 0.07 per patient·year. For the same molecule, the “Incidence rate, cerebrovascular event” value is, setting by setting: (females, at 4.8 years) 0.02 per patient·year; (females, at 18 months) 0 per patient·year; (males, at 4.8 years) 0.01 per patient·year; (males, at 18 months) 0 per patient·year. In addition, the “Incidence rate, death” value runs as follows: (females, at 4.8 years) 0 per patient·year; (females, at 18 months) 0 per patient·year; (males, at 4.8 years) 0 per patient·year; (males, at 18 months) 0 per patient·year. Also, the “Incidence rate, renal event” value reads like this: (females, at 4.8 years) 0.33 per patient·year; (females, at 18 months) 0.29 per patient·year; (males, at 4.8 years) 0.51 per patient·year; (males, at 18 months) 0.43 per patient·year. The “Incidence rate, composite clinical outcome” value was 0.37 per patient·year (females, at 4.8 years (data cutoff)); 0.34 per patient·year (females, at 18 months); 0.56 per patient·year (males, at 4.8 years (data cutoff)); 0.50 per patient·year (males, at 18 months). Besides, the “Median time to first CCO” value (migalastat exposure (0-4.8 years)) stood at 1.17 years.

B1: ERT: enzyme replacement therapy: infusion of purified α-Gal A, e.g. agalsidase alfa (Replagal) or agalsidase beta (Fabrazyme) (protein, UniProt P06280 32-429, looked up)
Alpha-galactosidase A: LDNGLARTPTMGWLHWERFMCNLDCQEEPDSCISEKLFMEMAELMVSEGWKDAGYEYLCIDDCWMAPQRDSEGRLQADPQRFPHGIRQLANYVHSKGLKLGIYADVGNKTCAGFPGSFGYYDIDAQTFADWGVDLLKFDGCYCDSLENLADGYKHMSLALNRTGRSIVYSCEWPLYMWPFQKPNYTEIRQYCNHWRNFADIDDSWKSIKSILDWTSFNQERIVDVAGPGGWNDPDMLVIGNFGLSWNQQVTQMALWAIMAAPLFMSNDLRHISPQAKALLQDKDVIAINQDPLGKQGYQLRQGDNFEVWERPLSGLAWAVAMINRQEIGGPRSYTIAVASLGKGVACNPACFITQLLPVKRKLGFYEWTSRLRSHINPTGTVLLQLENTMQMSLKDLL
As for B1, the “Incidence rate of composite clinical outcomes (CCOs)” value (first 18 months of treatment) was found to be 0.85 per patient·year. The “Median time to first composite clinical outcome” value (females, 0-18 months) came out at 0.35 Years. In addition, for the setting “females, at 18 months”, the “Incidence rate, cardiac event” value came out at 0.42 per patient·year; the “Incidence rate, cerebrovascular event” value is 0 per patient·year; the “Incidence rate, composite clinical outcome” value is reported as 0.98 per patient·year; the “Incidence rate, death” value came to 0 per patient·year. For the same molecule, the “Incidence rate, renal event” value (females, at 18 months) came to 0.56 per patient·year. Also, under “males, 0-18 months”, the “Median time to first composite clinical outcome” value came to 0.25 Years. Further, for the setting “males, at 18 months”, the “Incidence rate, cardiac event” value is 0 per patient·year; the “Incidence rate, cerebrovascular event” value is given as 0.10 per patient·year; the “Incidence rate, composite clinical outcome” value came to 0.68 per patient·year; the “Incidence rate, death” value came to 0 per patient·year. The “Incidence rate, renal event” value (males, at 18 months) is listed as 0.58 per patient·year. In addition, the “Median time to first CCO” value (ERT exposure (0-18 months)) was determined as 0.25 years.
